Article PMC10786919, “Design-rules for stapled peptides with in vivo activity and their application to Mdm2/X antagonists” (Nature Communications, 2024)
Values after ≈ are worked out from the molar mass of the structure shown. Like-named read-outs stand apart in the source and are kept apart here. Positions of bridges follow the written chain, without caps; N, C: chain ends. Non-standard residues stand in square brackets, D forms with d. Residues, ends and D or L forms follow the SMILES beside them. Phe(4-SO3H) = N[C@@H](Cc1ccc(S(=O)(=O)O)cc1)C(=O)O; Lys(N3) = [N-]=[N+]=NCCCC[C@H](N)C(=O)O; R8 = C=CCCCCCC[C@@](C)(N)C(=O)O; Cha = N[C@@H](CC1CCCCC1)C(=O)O; Cba = N[C@@H](CC1CCC1)C(=O)O; S5 = C=CCCC[C@](C)(N)C(=O)O; Ahx = NCCCCCC(=O)O; βAla = NCCC(=O)O

Legend:
[1] = tested on: p53 responsive β-lactamase reporter in HCT116 cells; assay: cells; type: cell-based; settings: 0% FBS 4Hr; read-out: p53 reporter assay EC50
Method: HCT116 cells were stably transfected with a p53 responsive β-lactamase reporter and expanded in McCoy’s 5 A Medium with 10% fetal bovine serum (FBS), Blasticidin, and Penicillin/Streptomycin and then transferred to 1.5 ml freezing vials and stored under liquid nitrogen in growth media containing 5% DMSO. […] The cells were then seeded into a 384-well plate at a density of 8000 cells per well. […] The final working concentration of DMSO was 0.5%. β-lactamase activity was detected using the ToxBLAzer Dual Screen (Invitrogen), as per the manufacturer’s instructions. Measurements were made using the Envision multiplate reader (Perkin–Elmer). […] Measurements were taken a minimum of three times (biological replicates) and values are reported as geometric means of the replicates.

[2] = Lactate dehydrogenase (LDH) release assay; type: cell-based
In short: (§1)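 HCT116 cells stably carrying a p53-responsive β-lactamase reporter were seeded at 8000 cells per well with a final DMSO level of 0.5%. Membrane integrity was assessed by lactate dehydrogenase release using a homogeneous fluorometric kit. Values are geometric means of at least three biological replicates.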

HCT116 cells = assay: Lactate dehydrogenase (LDH) release assay; type: cell-based
In short: as §1

[3] = Solubility assay (kinetic solubility, PBS pH 7); type: physicochemical; settings: pH 7, aqueous buffer, kinetic from dmso stock, pH 7, PBS; read-out: Solubility
In short: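 Reference standards were made by diluting the 10 mM stock to 100 µM in acetonitrile:methanol:DMSO 10:80:10. Solubility in µM was calculated as the sample peak area divided by the standard peak area, multiplied by the standard concentration.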

in vitro = assay: in vitro
In short: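 Azido-peptide permeability was read as loss of NanoBRET signal (donor 450 nm, acceptor 610 nm) after adding NanoBret618-azide at 10 μM final.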

[4] = Experimental LogD (partition coefficient); settings: not stated, Partition Coeff LogD
[5] = Nanoclick permeability assay EC50
[6] = 0% FBS 4Hr, read-out: LDH: Cytotoxicity assay EC50
[7] = 10% FBS 16Hr, read-out: LDH: Cytotoxicity assay EC50

Row | SMILES | EC50 [1] | EC50 ([2]; LDH: Cytotoxicity assay: EC50) | solubility kinetic [3] | cell entry EC50 (in vitro; [5]) | logD [4] | also measured
1 | CC(=O)N[C@@H](CCCCN)C(=O)NCCCCCC(=O)N[C@H](C(=O)N[C@@H](CO)C(=O)N[C@@H](Cc1ccccc1)C(=O)N[C@]1(C)CCCCCCCCCCC[C@@](C)(C(=O)N[C@@H](CCC(=O)O)C(=O)N[C@@H](CC(N)=O)C(=O)N[C@@H](Cc2ccccc2)C(N)=O)NC(=O)[C@H](CC(C)C)NC(=O)[C@H](CC(C)C)NC(=O)[C@H](C)NC(=O)[C@H](Cc2c[nH]c3ccccc23)NC(=O)[C@H](Cc2ccc(O)cc2)NC(=O)[C@H](CCC(=O)O)NC1=O)[C@@H](C)O [MP-049] | 8.74 µM | – | – | – | – | –
2 | CC(=O)N[C@@H](CCCCN)C(=O)N[C@@H](CCCCN)C(=O)N[C@@H](CO)C(=O)NCC(=O)N[C@@H](CO)C(=O)NCC(=O)N[C@H](C(=O)N[C@@H](CO)C(=O)N[C@@H](Cc1ccccc1)C(=O)N[C@]1(C)CCCCCCC=CCCC[C@@](C)(C(=O)N[C@@H](CCC(=O)O)C(=O)N[C@@H](CC(N)=O)C(=O)N[C@@H](Cc2ccccc2)C(N)=O)NC(=O)[C@H](CC(C)C)NC(=O)[C@H](CC(C)C)NC(=O)[C@H](C)NC(=O)[C@H](Cc2c[nH]c3ccccc23)NC(=O)[C@H](Cc2ccc(O)cc2)NC(=O)[C@H](CCC(=O)O)NC1=O)[C@@H](C)O [MP-052] (Ac-KKSGSGTSF[R8]EYWALL[S5]ENF-NH2; staple 10-17) | 12.9 µM | – | – | – | – | –
3 | CC(=O)N[C@H](C(=O)N[C@@H](CO)C(=O)N[C@@H](Cc1ccccc1)C(=O)N[C@]1(C)CCCCCCC=CCCC[C@@](C)(C(N)=O)NC(=O)[C@H](CC2CCCCC2)NC(=O)[C@H](CC(C)C)NC(=O)[C@H](C)NC(=O)[C@H](Cc2c[nH]c3ccccc23)NC(=O)[C@H](Cc2ccc(O)cc2)NC(=O)[C@H](CCC(=O)O)NC1=O)[C@@H](C)O [MP-064] (Ac-TSF[R8]EYWAL[Cha][S5]-NH2; staple 4-11) | 0.89 µM | – | – | – | – | –
4 | CC(=O)N[C@H](C(=O)N[C@@H](CO)C(=O)N[C@@H](C)C(=O)N[C@]1(C)CCCCCCC=CCCC[C@@](C)(C(N)=O)NC(=O)[C@H](CC(C)C)NC(=O)[C@H](CC(C)C)NC(=O)[C@H](C)NC(=O)[C@H](Cc2c[nH]c3ccccc23)NC(=O)[C@H](Cc2ccc(O)cc2)NC(=O)[C@H](CCC(=O)O)NC1=O)[C@@H](C)O [MP-067] (Ac-TSA[R8]EYWALL[S5]-NH2; staple 4-11) | > 50 µM | – | – | – | – | –
5 | CC(=O)N[C@@H](CCCCN)C(=O)NCCCCCC(=O)N[C@H](C(=O)N[C@@H](CO)C(=O)N[C@@H](C)C(=O)N[C@]1(C)CCCCCCC=CCCC[C@@](C)(C(=O)N[C@@H](CCC(=O)O)C(=O)N[C@@H](CC(N)=O)C(=O)N[C@@H](Cc2ccccc2)C(N)=O)NC(=O)[C@H](CC(C)C)NC(=O)[C@H](CC(C)C)NC(=O)[C@H](C)NC(=O)[C@H](Cc2c[nH]c3ccccc23)NC(=O)[C@H](Cc2ccc(O)cc2)NC(=O)[C@H](CCC(=O)O)NC1=O)[C@@H](C)O [MP-068] (Ac-K[Ahx]TSA[R8]EYWALL[S5]ENF-NH2; staple 6-13) | > 50 µM | – | – | – | – | –
6 | CC(C)C[C@H](NC(=O)CCNC(=O)[C@@H](N)CCCCN=[N+]=[N-])C(=O)N[C@H](C(=O)N[C@@H](Cc1ccccc1)C(=O)N[C@]1(C)CCCCCCC=CCCC[C@@](C)(C(N)=O)NC(=O)[C@H](CC2CCC2)NC(=O)[C@H](CC(C)C)NC(=O)[C@H](CCC(N)=O)NC(=O)[C@H](Cc2c[nH]c3ccccc23)NC(=O)[C@H](Cc2ccc(O)cc2)NC(=O)[C@H](CCC(=O)O)NC1=O)[C@@H](C)O [MP-329] (H-[Lys(N3)][βAla]LTF[R8]EYWQL[Cba][S5]-NH2; staple 6-13) | – | > 50.7 µM | 5 µM (≈ 8.71 µg/mL) | 2.69 µM | 2.71 | EC50 (HCT116 cells): 50.5 µM
7 | CC(=O)N[C@@H](CCCCN=[N+]=[N-])C(=O)NCCC(=O)N[C@@H](CC(=O)O)C(=O)N[C@H](C(=O)N[C@@H](Cc1ccccc1)C(=O)N[C@]1(C)CCCCCCC=CCCC[C@@](C)(C(=O)N[C@@H](CO)C(=O)N[C@@H](C)C(=O)N[C@@H](C)C(N)=O)NC(=O)[C@H](CC2CCC2)NC(=O)[C@H](CCC(N)=O)NC(=O)[C@H](CC(=O)O)NC(=O)[C@H](Cc2c[nH]c3ccccc23)NC(=O)[C@H](Cc2ccc(O)cc2)NC(=O)[C@H](CC(=O)O)NC1=O)[C@@H](C)O [MP-495, azide-ATSP-7041 (L1D, E5D, A8D)] (Ac-[Lys(N3)][βAla]DTF[R8]DYWDQ[Cba][S5]SAA-NH2; staple 6-13) | – | – | 78.7 µM (≈ 158 µg/mL) | – | 1.93 | EC50 ([2]; 0% FBS 4Hr, read-out: LDH: Cytotoxicity assay: EC50): > 50.6 µM; LDH: Cytotoxicity assay: % Effect (HCT116 cells; 0% FBS 4Hr): 1.328%; cell entry EC50 (in vitro): 0.327 µM
8 | CC(=O)N[C@@H](CCC(=O)O)C(=O)N[C@@H](CCC(=O)O)C(=O)N[C@@H](CCC(=O)O)C(=O)N[C@@H](CCCCN=[N+]=[N-])C(=O)NCCC(=O)N[C@@H](CC(C)C)C(=O)N[C@H](C(=O)N[C@@H](Cc1ccccc1)C(=O)N[C@]1(C)CCCCCCC=CCCC[C@@](C)(C(=O)N[C@@H](CO)C(=O)N[C@@H](C)C(=O)N[C@@H](C)C(N)=O)NC(=O)[C@H](CC2CCC2)NC(=O)[C@H](CCC(N)=O)NC(=O)[C@H](C)NC(=O)[C@H](Cc2c[nH]c3ccccc23)NC(=O)[C@H](Cc2ccc(O)cc2)NC(=O)[C@H](CCC(=O)O)NC1=O)[C@@H](C)O [MP-617] | – | > 50.6 µM | 81.5 µM (≈ 192 µg/mL) | 0.842 µM | 2.09 | LDH: Cytotoxicity assay: % Effect (HCT116 cells): -1.09%
9 | CC(=O)N[C@@H](CCC(=O)O)C(=O)N[C@@H](CCC(=O)O)C(=O)N[C@@H](CCC(=O)O)C(=O)N[C@@H](CCCCN=[N+]=[N-])C(=O)NCCC(=O)N[C@@H](CC(C)C)C(=O)N[C@H](C(=O)N[C@@H](Cc1ccccc1)C(=O)N[C@]1(C)CCCCCCC=CCCC[C@@](C)(C(=O)N[C@@H](CCC(=O)O)C(=O)N[C@@H](CCC(=O)O)C(=O)N[C@@H](CCC(=O)O)C(N)=O)NC(=O)[C@H](CC2CCC2)NC(=O)[C@H](CCC(N)=O)NC(=O)[C@H](C)NC(=O)[C@H](Cc2c[nH]c3ccccc23)NC(=O)[C@H](Cc2ccc(O)cc2)NC(=O)[C@H](CCC(=O)O)NC1=O)[C@@H](C)O [MP-764] (Ac-EEE[Lys(N3)][βAla]LTF[R8]EYWAQ[Cba][S5]EEE-NH2; staple 9-16) | – | > 50.6 µM | 22 µM (≈ 55.3 µg/mL) | 2.67 µM | 1.26 | LDH: Cytotoxicity assay: % Effect (HCT116 cells): -1.252%
10 | CC(=O)N[C@@H](CCCCN=[N+]=[N-])C(=O)NCCC(=O)N[C@@H](CC(C)C)C(=O)N[C@H](C(=O)N[C@@H](Cc1ccccc1)C(=O)N[C@]1(C)CCCCCCC=CCCC[C@@](C)(C(=O)N[C@@H](C)C(=O)N[C@@H](C)C(=O)N[C@@H](C)C(=O)N[C@@H](CCC(=O)O)C(=O)N[C@@H](C)C(=O)N[C@H](C)C(N)=O)NC(=O)[C@H](CC2CCC2)NC(=O)[C@H](CCC(N)=O)NC(=O)[C@H](C)NC(=O)[C@H](Cc2c[nH]c3ccccc23)NC(=O)[C@H](Cc2ccc(O)cc2)NC(=O)[C@H](CCC(=O)O)NC1=O)[C@@H](C)O [MP-835] (Ac-[Lys(N3)][βAla]LTF[R8]EYWAQ[Cba][S5]AAAEA[dA]-NH2; staple 6-13) | – | – | 162 µM (≈ 361 µg/mL) | – | 2.16 | EC50 [2, 6]: > 50.7 µM; EC50 [2, 7]: > 50.7 µM; LDH: Cytotoxicity assay % Effect (HCT116 cells; 0% FBS 4Hr): 3.786%; LDH: Cytotoxicity assay % Effect (HCT116 cells; 10% FBS 16Hr): 22.41%; cell entry EC50 (in vitro): 0.537 µM
11 | CC(=O)N[C@@H](CCCCN=[N+]=[N-])C(=O)NCCC(=O)N[C@@H](CC(C)C)C(=O)N[C@H](C(=O)N[C@@H](Cc1ccccc1)C(=O)N[C@]1(C)CCCCCCC=CCCC[C@@](C)(C(=O)N[C@@H](C)C(=O)N[C@@H](CCC(N)=O)C(=O)N[C@@H](C)C(=O)N[C@@H](C)C(=O)N[C@@H](C)C(=O)N[C@H](C)C(N)=O)NC(=O)[C@H](CC2CCC2)NC(=O)[C@H](CCC(N)=O)NC(=O)[C@H](C)NC(=O)[C@H](Cc2c[nH]c3ccccc23)NC(=O)[C@H](Cc2ccc(O)cc2)NC(=O)[C@H](CCC(=O)O)NC1=O)[C@@H](C)O [MP-966] (Ac-[Lys(N3)][βAla]LTF[R8]EYWAQ[Cba][S5]AQAAA[dA]-NH2; staple 6-13) | – | – | 160 µM (≈ 356 µg/mL) | – | 3.07 | EC50 [2, 6]: > 50.7 µM; EC50 [2, 7]: > 50.7 µM; LDH: Cytotoxicity assay % Effect (HCT116 cells; 0% FBS 4Hr): -1.602%; LDH: Cytotoxicity assay % Effect (HCT116 cells; 10% FBS 16Hr): 12.04%; cell entry EC50 (in vitro): 6.1 µM
12 | CC(=O)N[C@@H](CCCCN=[N+]=[N-])C(=O)NCCC(=O)N[C@@H](Cc1ccc(S(=O)(=O)O)cc1)C(=O)N[C@H](C(=O)N[C@@H](Cc1ccccc1)C(=O)N[C@]1(C)CCCCCCC=CCCC[C@@](C)(C(=O)N[C@@H](CO)C(=O)N[C@@H](C)C(=O)N[C@@H](C)C(N)=O)NC(=O)[C@H](CC2CCC2)NC(=O)[C@H](CCC(N)=O)NC(=O)[C@H](C)NC(=O)[C@H](Cc2c[nH]c3ccccc23)NC(=O)[C@H](Cc2ccc(O)cc2)NC(=O)[C@H](CCC(=O)O)NC1=O)[C@@H](C)O [MP-7668] (Ac-[Lys(N3)][βAla][Phe(4-SO3H)]TF[R8]EYWAQ[Cba][S5]SAA-NH2; staple 6-13) | – | > 50.6 µM | 28 µM (≈ 58.4 µg/mL) | 0.406 µM | 2.31 | LDH: Cytotoxicity assay: % Effect (HCT116 cells): 2.173%
